Experimental data published in ChEMBL document CHEMBL5365500, “Development and Antibacterial Properties of 4-[4-(Anilinomethyl)-3-phenylpyrazol-1-yl]benzoic Acid Derivatives as Fatty Acid Biosynthesis Inhibitors” (J Med Chem, 2023).
Converted amounts (≈) assume the structure as drawn.

Columns and labels:
Assay type in all cases: functional
Bacillus subtilis = experiment: Antimicrobial activity against antibiotic-resistant Bacillus subtilis ATCC 6623 assessed as inhibition of visible growth measured after 20 to 24 hrs incubation by CLSI method; details: time 20-24 hrs
Staphylococcus aureus [1] = experiment: Antimicrobial activity against antibiotic-resistant Staphylococcus aureus ATCC 33591 assessed as inhibition of visible growth measured after 20 to 24 hrs incubation by CLSI method; details: time 20-24 hrs
[2] = test system: Staphylococcus epidermidis; experiment: Antimicrobial activity against antibiotic-resistant Staphylococcus epidermidis ATCC 700296 assessed as inhibition of visible growth measured after 20 to 24 hrs incubation by CLSI method; details: time 20-24 hrs
Enterococcus faecalis [3] = experiment: Antimicrobial activity against antibiotic-resistant Enterococcus faecalis ATCC 51299 assessed as inhibition of visible growth measured after 20 to 24 hrs incubation by CLSI method; details: time 20-24 hrs
Staphylococcus aureus [4] = experiment: Antimicrobial activity against Staphylococcus aureus ATCC 25923 assessed as inhibition of visible growth measured after 20 to 24 hrs incubation by CLSI method; details: time 20-24 hrs
Enterococcus faecalis [5] = experiment: Antimicrobial activity against antibiotic-susceptible Enterococcus faecalis ATCC 29212 assessed as inhibition of visible growth measured after 20 to 24 hrs incubation by CLSI method; details: time 20-24 hrs
Staphylococcus aureus [6] = experiment: Antimicrobial activity against antibiotic-resistant Staphylococcus aureus ATCC BAA-2312 assessed as inhibition of visible growth measured after 20 to 24 hrs incubation by CLSI method; details: time 20-24 hrs
Enterococcus faecium = experiment: Antimicrobial activity against antibiotic-resistant Enterococcus faecium ATCC 700221 assessed as inhibition of visible growth measured after 20 to 24 hrs incubation by CLSI method; details: time 20-24 hrs
Staphylococcus aureus [7] = experiment: Antimicrobial activity against antibiotic-resistant Staphylococcus aureus ATCC 700699 assessed as inhibition of visible growth measured after 20 to 24 hrs incubation by CLSI method; details: time 20-24 hrs
Staphylococcus aureus [8] = experiment: Antimicrobial activity against antibiotic-resistant Staphylococcus aureus ATCC 33592 assessed as inhibition of visible growth measured after 20 to 24 hrs incubation by CLSI method; details: time 20-24 hrs
Staphylococcus aureus [9] = experiment: In vivo antimicrobial activity against Staphylococcus aureus UAMS-1 infected in Caenorhabditis elegans AU37 nematodes assessed as viability of nematodes incubated for 5 days by susceptibility test; details: UAMS-1, 120 h, time 5 day
Staphylococcus aureus [10] = experiment: In vivo antimicrobial activity against Staphylococcus aureus Newman infected in Caenorhabditis elegans AU37 nematodes assessed as viability of nematodes incubated for 5 days by susceptibility test; details: 120 h, time 5 day
Staphylococcus aureus [11] = experiment: In vivo antimicrobial activity against Staphylococcus aureus USA300 infected in Caenorhabditis elegans AU37 nematodes assessed as viability of nematodes incubated for 5 days by susceptibility test; details: USA300, 120 h, time 5 day

Row | Compound | MIC (Bacillus subtilis) [µg/mL] | MIC (Staphylococcus aureus [1]) [µg/mL] | MIC [2] [µg/mL] | MIC (Enterococcus faecalis [3]) [µg/mL] | MIC (Staphylococcus aureus [4]) [µg/mL] | MIC (Enterococcus faecalis [5]) [µg/mL] | MIC (Staphylococcus aureus [6]) [µg/mL] | MIC (Enterococcus faecium) [µg/mL] | MIC (Staphylococcus aureus [7]) [µg/mL] | MIC (Staphylococcus aureus [8]) [µg/mL] | MIC (Staphylococcus aureus [9]) [µg/mL] | MIC (Staphylococcus aureus [10]) [µg/mL] | MIC (Staphylococcus aureus [11]) [µg/mL]
1 | O=C(O)c1ccc(-n2cc(CNc3cc(F)cc(C(F)(F)F)c3)c(-c3ccc(F)c(F)c3)n2)cc1 | 1 (≈ 2.04 µM) | 1 (≈ 2.04 µM) | 4 (≈ 8.14 µM) | 8 (≈ 16.3 µM) | 2 (≈ 4.07 µM) | 8 (≈ 16.3 µM) | 2 (≈ 4.07 µM) | 4 (≈ 8.14 µM) | 2 (≈ 4.07 µM) | 1 (≈ 2.04 µM) |  |  | 
2 | O=C(O)c1ccc(-n2cc(CNc3ccc(Br)cc3)c(-c3cccc(F)c3)n2)cc1 | 4 (≈ 8.58 µM) | 4 (≈ 8.58 µM) | 16 (≈ 34.3 µM) | 32 (≈ 68.6 µM) | 4 (≈ 8.58 µM) | 32 (≈ 68.6 µM) | 8 (≈ 17.2 µM) | 16 (≈ 34.3 µM) | 16 (≈ 34.3 µM) | 16 (≈ 34.3 µM) |  |  | 
3 | O=C(O)c1ccc(-n2cc(CNc3cccc(Br)c3)c(-c3cccc(F)c3)n2)cc1 | 2 (≈ 4.29 µM) | 2 (≈ 4.29 µM) | 16 (≈ 34.3 µM) | 16 (≈ 34.3 µM) | 4 (≈ 8.58 µM) | 16 (≈ 34.3 µM) | 4 (≈ 8.58 µM) | 16 (≈ 34.3 µM) | 8 (≈ 17.2 µM) | 8 (≈ 17.2 µM) |  |  | 
4 | O=C(O)c1ccc(-n2cc(CNc3cc(Cl)cc(C(F)(F)F)c3)c(-c3cccc(F)c3)n2)cc1 | 0.5 (≈ 1.02 µM) | 1 (≈ 2.04 µM) | 4 (≈ 8.17 µM) | 2 (≈ 4.08 µM) | 2 (≈ 4.08 µM) | 4 (≈ 8.17 µM) | 1 (≈ 2.04 µM) | 2 (≈ 4.08 µM) | 2 (≈ 4.08 µM) | 1 (≈ 2.04 µM) |  |  | 
5 | O=C(O)c1ccc(-n2cc(CNc3cc(Cl)cc(C(F)(F)F)c3)c(-c3ccc(F)cc3)n2)cc1 | 4 (≈ 8.17 µM) | 2 (≈ 4.08 µM) | 8 (≈ 16.3 µM) | 16 (≈ 32.7 µM) | 4 (≈ 8.17 µM) | 16 (≈ 32.7 µM) | 4 (≈ 8.17 µM) | 4 (≈ 8.17 µM) | 2 (≈ 4.08 µM) | 4 (≈ 8.17 µM) |  |  | 
6 | O=C(O)c1ccc(-n2cc(CNc3cc(Cl)ccc3Cl)c(-c3cccc(F)c3)n2)cc1 | 8 (≈ 17.5 µM) | 32 (≈ 70.1 µM) | 32 (≈ 70.1 µM) | 32 (≈ 70.1 µM) | 32 (≈ 70.1 µM) | 32 (≈ 70.1 µM) | 16 (≈ 35.1 µM) | 32 (≈ 70.1 µM) | 32 (≈ 70.1 µM) | 32 (≈ 70.1 µM) |  |  | 
7 | O=C(O)c1ccc(-n2cc(CNc3ccc(F)c(Cl)c3)c(-c3ccc(F)c(F)c3)n2)cc1 | 2 (≈ 4.37 µM) | 2 (≈ 4.37 µM) | 8 (≈ 17.5 µM) | 32 (≈ 69.9 µM) | 8 (≈ 17.5 µM) | 16 (≈ 34.9 µM) | 4 (≈ 8.74 µM) | 8 (≈ 17.5 µM) | 8 (≈ 17.5 µM) | 8 (≈ 17.5 µM) |  |  | 
8 | O=C(O)c1ccc(-n2cc(CNc3ccc(Br)c(Cl)c3)c(-c3ccc(F)c(F)c3)n2)cc1 | 2 (≈ 3.86 µM) | 0.5 (≈ 0.964 µM) | 2 (≈ 3.86 µM) | 4 (≈ 7.71 µM) | 1 (≈ 1.93 µM) | 4 (≈ 7.71 µM) | 1 (≈ 1.93 µM) | 4 (≈ 7.71 µM) | 2 (≈ 3.86 µM) | 2 (≈ 3.86 µM) |  |  | 
9 | O=C(O)c1ccc(-n2cc(CNc3cc(C(F)(F)F)cc(C(F)(F)F)c3)c(-c3ccc(F)cc3)n2)cc1 | 1 (≈ 1.91 µM) | 0.5 (≈ 0.955 µM) | 4 (≈ 7.64 µM) | 4 (≈ 7.64 µM) | 1 (≈ 1.91 µM) | 4 (≈ 7.64 µM) | 1 (≈ 1.91 µM) | 2 (≈ 3.82 µM) | 2 (≈ 3.82 µM) | 1 (≈ 1.91 µM) | 1 (≈ 1.91 µM) | 0.5 (≈ 0.955 µM) | 1 (≈ 1.91 µM)
10 | O=C(O)c1ccc(-n2cc(CNc3ccc(Cl)cc3)c(-c3ccc(F)cc3)n2)cc1 | 4 (≈ 9.48 µM) | 4 (≈ 9.48 µM) | > 32 | > 32 | > 32 | > 32 | 32 (≈ 75.9 µM) | > 32 | 8 (≈ 19 µM) | > 32 |  |  | 
11 | O=C(O)c1ccc(-n2cc(CNc3cc(Cl)c(F)c(Cl)c3)c(-c3ccc(F)cc3)n2)cc1 | 1 (≈ 2.11 µM) | 0.5 (≈ 1.05 µM) | 2 (≈ 4.22 µM) | 4 (≈ 8.43 µM) | 1 (≈ 2.11 µM) | 8 (≈ 16.9 µM) | 1 (≈ 2.11 µM) | 4 (≈ 8.43 µM) | 2 (≈ 4.22 µM) | 1 (≈ 2.11 µM) |  |  | 
12 | O=C(O)c1ccc(-n2cc(CNc3ccc(F)c(Cl)c3F)c(-c3ccc(F)c(F)c3)n2)cc1 | 1 (≈ 2.1 µM) | 2 (≈ 4.2 µM) | 8 (≈ 16.8 µM) | > 32 | 4 (≈ 8.41 µM) | 16 (≈ 33.6 µM) | 4 (≈ 8.41 µM) | 4 (≈ 8.41 µM) | 4 (≈ 8.41 µM) | 4 (≈ 8.41 µM) |  |  | 
13 | O=C(O)c1ccc(-n2cc(CNc3ccccc3)c(-c3ccc(F)cc3)n2)cc1 | 16 (≈ 41.3 µM) | 32 (≈ 82.6 µM) | 32 (≈ 82.6 µM) | > 32 | 32 (≈ 82.6 µM) | > 32 | 32 (≈ 82.6 µM) | > 32 | 32 (≈ 82.6 µM) | 32 (≈ 82.6 µM) |  |  | 
